Patent publication US5294611A, “Angiotensin II receptor blocking 2,3,6 substituted quinazolinones” (American Cyanamid Company, priority 1993, dated 1994)
Where two headings read alike, the source gives them in different places.

System: Angiotensin II (AII) vasopressor response
Test: AII Challenge: antagonism of angiotensin II vasopressor response in conscious spontaneously hypertensive rats
Assay type: in vivo, rat (male okamoto-Aoki SHR)
Conditions: for inhibition in vivo at 10 mg/kg / inhibition in vivo at 5 mg/kg / inhibition in vivo at 3 mg/kg: Rattus norvegicus; for inhibition in vivo at 10 mg/kg / inhibition in vivo at 3 mg/kg: iv; for inhibition in vivo at 5 mg/kg: po; for inhibition in vivo at 5 mg/kg / inhibition in vivo at 3 mg/kg: read-out: Inhibition; for Change: single SHR
In short: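 Read-out is the systolic pressure increase (mmHg) to i.v. angiotensin II, 0.05 and 0.1 ug/kg, compared pre- and post-dose in restrained, conscious spontaneously hypertensive male rats. Compounds administered orally, i.p. or i.v.; arterial cannula inserted under local anaesthesia.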

`CCCCc1nc2ccc([C@@H]3[C@H]4C(=O)CCC[C@H]4ON3C)cc2c(=O)n1Cc1ccc(-c2ccccc2-c2nnn[nH]2)cc1` (relative stereo) [Example 49] gave an inhibition in vivo at 10 mg/kg (0.5 h, SHR n=2, 10 mg/kg I.V., AII 0.05 mcg/kg IV, 30 min post dose) of 100%, an inhibition in vivo at 10 mg/kg (0.5 h, SHR n=2, 10 mg/kg I.V., AII 0.1 mcg/kg IV, 30 min post dose) of 88% and an inhibition in vivo at 10 mg/kg (1 h, SHR n=2, 10 mg/kg I.V., AII 0.01 mcg/kg IV (so in the source), 60 min post dose) of 86%. The inhibition in vivo at 10 mg/kg (1 h, SHR n=2, 10 mg/kg I.V., AII 0.05 mcg/kg IV, 60 min post dose) was 97%, the inhibition in vivo at 10 mg/kg (2 h, SHR n=2, 10 mg/kg I.V., AII 0.05 mcg/kg IV, 120 min post dose) was 86% and the inhibition in vivo at 10 mg/kg (2 h, SHR n=2, 10 mg/kg I.V., AII dose not given, 120 min post dose) was 81%. It also gave an inhibition in vivo at 10 mg/kg (3 h, SHR n=2, 10 mg/kg I.V., AII 0.05 mcg/kg IV, 180 min post dose) of 67%, an inhibition in vivo at 10 mg/kg (3 h, SHR n=2, 10 mg/kg I.V., AII 0.1 mcg/kg IV, 180 min post dose) of 63% and an inhibition in vivo at 10 mg/kg ([…], SHR n=2, 10 mg/kg I.V., AII 0.05 mcg/kg IV, 90 min post dose) of 87%. The inhibition in vivo at 10 mg/kg ([…], SHR n=2, 10 mg/kg I.V., AII 0.1 mcg/kg IV, 90 min post dose) was 86%, the inhibition in vivo at 5 mg/kg (0.5 h, SHR n=2, 5 mg/kg P.O., AII 0.05 mcg/kg IV, 30 min post dose) was 37% and the inhibition in vivo at 5 mg/kg (0.5 h, SHR n=2, 5 mg/kg P.O., AII 0.1 mcg/kg IV, 30 min post dose) was 38%. It also gave an inhibition in vivo at 5 mg/kg (1 h, SHR n=2, 5 mg/kg P.O., AII 0.05 mcg/kg IV, 60 min post dose) of 59%, an inhibition in vivo at 5 mg/kg (1 h, SHR n=2, 5 mg/kg P.O., AII 0.1 mcg/kg IV, 60 min post dose) of 29% and an inhibition in vivo at 5 mg/kg (2 h, SHR n=2, 5 mg/kg P.O., AII 0.05 mcg/kg IV, 120 min post dose) of 41%. The inhibition in vivo at 5 mg/kg (2 h, SHR n=2, 5 mg/kg P.O., AII 0.1 mcg/kg IV, 120 min post dose) was 55%, the inhibition in vivo at 5 mg/kg (3 h, SHR n=2, 5 mg/kg P.O., AII 0.05 mcg/kg IV, 180 min post dose) was 63% and the inhibition in vivo at 5 mg/kg (3 h, SHR n=2, 5 mg/kg P.O., AII 0.1 mcg/kg IV, 180 min post dose) was 35%. For the same molecule, the inhibition in vivo at 5 mg/kg (4 h, SHR n=2, 5 mg/kg P.O., AII 0.05 mcg/kg IV, 240 min post dose) was 34%, the inhibition in vivo at 5 mg/kg (4 h, SHR n=2, 5 mg/kg P.O., AII 0.1 mcg/kg IV, 240 min post dose) was 36% and the inhibition in vivo at 5 mg/kg ([…], SHR n=2, 5 mg/kg P.O., AII 0.05 mcg/kg IV, 90 min post dose) was 56%. The inhibition in vivo at 5 mg/kg ([…], SHR n=2, 5 mg/kg P.O., AII 0.1 mcg/kg IV, 90 min post dose) was 59%, the “Average Change” value (SHR n=2, 5 mg/kg P.O., AII 0.05 mcg/kg IV, 30 min post dose) was 21.5 mmHg and the “Average Change” value (SHR n=2, 5 mg/kg P.O., AII 0.05 mcg/kg IV, 60 min post dose) was 14 mmHg. For the same molecule, the “Average Change” value (SHR n=2, 5 mg/kg P.O., AII 0.05 mcg/kg IV, 90 min post dose) was 15 mmHg, the “Average Change” value (SHR n=2, 5 mg/kg P.O., AII 0.05 mcg/kg IV, 120 min post dose) was 20 mmHg and the “Average Change” value (SHR n=2, 5 mg/kg P.O., AII 0.05 mcg/kg IV, 180 min post dose) was 12.5 mmHg. The “Average Change” value (SHR n=2, 5 mg/kg P.O., AII 0.05 mcg/kg IV, 240 min post dose) was 22.5 mmHg, the “Average Change” value (SHR n=2, 5 mg/kg P.O., AII 0.1 mcg/kg IV, 30 min post dose) was 26.5 mmHg and the “Average Change” value (SHR n=2, 5 mg/kg P.O., AII 0.1 mcg/kg IV, 60 min post dose) was 30 mmHg. The “Average Change” value (SHR n=2, 5 mg/kg P.O., AII 0.1 mcg/kg IV, 90 min post dose) was 17.5 mmHg, the “Average Change” value (SHR n=2, 5 mg/kg P.O., AII 0.1 mcg/kg IV, 120 min post dose) was 19 mmHg and the “Average Change” value (SHR n=2, 5 mg/kg P.O., AII 0.1 mcg/kg IV, 180 min post dose) was 27.5 mmHg. The “Average Change” value (SHR n=2, 5 mg/kg P.O., AII 0.1 mcg/kg IV, 240 min post dose) was 27 mmHg, the “Average Change” value (SHR n=2, 10 mg/kg I.V., AII 0.01 mcg/kg IV (so in the source), 60 min post dose) was 7.5 mmHg and the “Average Change” value (SHR n=2, 10 mg/kg I.V., AII 0.05 mcg/kg IV, 30 min post dose) was 0 mmHg. The “Average Change” value (SHR n=2, 10 mg/kg I.V., AII 0.05 mcg/kg IV, 60 min post dose) was 1 mmHg, the “Average Change” value (SHR n=2, 10 mg/kg I.V., AII 0.05 mcg/kg IV, 90 min post dose) was 5 mmHg and the “Average Change” value (SHR n=2, 10 mg/kg I.V., AII 0.05 mcg/kg IV, 120 min post dose) was 5.5 mmHg. For the same molecule, the “Average Change” value (SHR n=2, 10 mg/kg I.V., AII 0.05 mcg/kg IV, 180 min post dose) was 12.5 mmHg, the “Average Change” value (SHR n=2, 10 mg/kg I.V., AII 0.1 mcg/kg IV, 30 min post dose) was 6.5 mmHg and the “Average Change” value (SHR n=2, 10 mg/kg I.V., AII 0.1 mcg/kg IV, 90 min post dose) was 7.5 mmHg. For the same molecule, the “Average Change” value (SHR n=2, 10 mg/kg I.V., AII 0.1 mcg/kg IV, 180 min post dose) was 20 mmHg, the “Average Change” value (SHR n=2, 10 mg/kg I.V., AII dose not given, 120 min post dose) was 10 mmHg and the Change (5 mg/kg P.O., AII 0.05 mcg/kg IV, 90 min post dose) was 15 mmHg. For the same molecule, the Change (10 mg/kg I.V., AII 0.05 mcg/kg IV, 30 min post dose) was 0 mmHg, the Change (10 mg/kg I.V., AII 0.05 mcg/kg IV, 90 min post dose) was 5 mmHg and the Change (10 mg/kg I.V., AII 0.1 mcg/kg IV, 180 min post dose) was 20 mmHg. The Change (10 mg/kg I.V., AII dose not given, 120 min post dose) was 10 mmHg.

With `CCCCc1nc2ccc([C@H]3[C@@H]4C5CCC(C5)[C@@H]4ON3C)cc2c(=O)n1Cc1ccc(-c2ccccc2-c2nnn[nH]2)cc1` (stereo partly shown) [Example 51] the inhibition in vivo at 3 mg/kg (0.5 h, SHR n=2, 3 mg/kg I.V., AII 0.05 mcg/kg IV, 30 min post dose) was 89%, the inhibition in vivo at 3 mg/kg (0.5 h, SHR n=2, 3 mg/kg I.V., AII 0.1 mcg/kg IV, 30 min post dose) was 87% and the inhibition in vivo at 3 mg/kg (1 h, SHR n=2, 3 mg/kg I.V., AII 0.05 mcg/kg IV, 60 min post dose) was 63%. For the same molecule, the inhibition in vivo at 3 mg/kg (1 h) was 82%, the inhibition in vivo at 3 mg/kg (2 h, SHR n=2, 3 mg/kg I.V., AII 0.05 mcg/kg IV, 120 min post dose) was 83% and the inhibition in vivo at 3 mg/kg (2 h, SHR n=2, 3 mg/kg I.V., AII 0.1 mcg/kg IV, 120 min post dose) was 75%. For the same molecule, the inhibition in vivo at 3 mg/kg (3 h, SHR n=2, 3 mg/kg I.V., AII 0.05 mcg/kg IV, 180 min post dose) was 67%, the inhibition in vivo at 3 mg/kg (3 h, SHR n=2, 3 mg/kg I.V., AII 0.1 mcg/kg IV, 180 min post dose) was 63% and the inhibition in vivo at 3 mg/kg ([…], SHR n=2, 3 mg/kg I.V., AII 0.05 mcg/kg IV, 90 min post dose) was 78%. The inhibition in vivo at 3 mg/kg ([…], SHR n=2, 3 mg/kg I.V., AII 0.1 mcg/kg IV, 90 min post dose) was 80%, the “Average Change” value (SHR n=2, 3 mg/kg I.V., AII 0.05 mcg/kg IV, 30 min post dose) was 5 mmHg and the “Average Change” value (SHR n=2, 3 mg/kg I.V., AII 0.05 mcg/kg IV, 60 min post dose) was 16.5 mmHg. The “Average Change” value (SHR n=2, 3 mg/kg I.V., AII 0.05 mcg/kg IV, 90 min post dose) was 10 mmHg, the “Average Change” value (SHR n=2, 3 mg/kg I.V., AII 0.05 mcg/kg IV, 120 min post dose) was 7.5 mmHg and the “Average Change” value (SHR n=2, 3 mg/kg I.V., AII 0.05 mcg/kg IV, 180 min post dose) was 15 mmHg. The “Average Change” value (SHR n=2, 3 mg/kg I.V., AII 0.1 mcg/kg IV, 30 min post dose) was 8 mmHg, the “Average Change” value (SHR n=2, 3 mg/kg I.V., AII 0.1 mcg/kg IV, 60 min post dose) was 11 mmHg and the “Average Change” value (SHR n=2, 3 mg/kg I.V., AII 0.1 mcg/kg IV, 90 min post dose) was 12.5 mmHg. The “Average Change” value (SHR n=2, 3 mg/kg I.V., AII 0.1 mcg/kg IV, 120 min post dose) was 15.5 mmHg, the “Average Change” value (SHR n=2, 3 mg/kg I.V., AII 0.1 mcg/kg IV, 180 min post dose) was 22.5 mmHg and the Change (3 mg/kg I.V., AII 0.05 mcg/kg IV, 180 min post dose) was 15 mmHg.
